The text below walks through data of US10988477B2 (Merck Patent GmbH, priority 2018, dated 2021).

For orientation: Ki means a dissociation constant, usually derived from enzyme kinetics or from competition with a known ligand. Low readings indicate a stronger hold on the target, high ones a looser hold on the target. The IC50 is the concentration that inhibits the measured activity by half.

Assay [1] concerns the target GCN2 kinase (Homo sapiens, UniProt Q9P2K8). Description: GCN2 enzyme inhibition assay (Transcreener ADP2 fluorescence polarization). Particulars: compounds of Formula II; 280 μM ATP, 4 nM GCN2 kinase. The class given is biochemical. The procedure, abridged: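 Inhibition of 4 nM GCN2 was measured with compound up to 8 μM final, ATP 280 μM and (RS)7 peptide 200 μM over a 1 h, 25 °C reaction. ADP FP readout; IC50 and Ki(app) calculated from percent inhibition.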

Assay [2] concerns the target intracellular GCN2 (phosphorylation of the GCN2 substrate eIF2α) (Homo sapiens, UniProt Q9P2K8). The experiment in a line: GCN2 cellular inhibition assay (AlphaScreen SureFire P-eIF2α Ser51, borrelidin-treated U2OS cells). The class given is cell-based. Particulars: compounds of Formula II; biomarker assay, phosphorylated eIF2α Ser51 in borrelidin-treated U2OS cells. The procedure, abridged:
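Compound effect on GCN2 is gauged by eIF2α Ser51 phosphorylation in borrelidin-challenged U2OS cells (10 μM, 1 h). Top compound level is 40 μM final.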

Chain of GCN2 kinase (Q9P2K8 whole entry): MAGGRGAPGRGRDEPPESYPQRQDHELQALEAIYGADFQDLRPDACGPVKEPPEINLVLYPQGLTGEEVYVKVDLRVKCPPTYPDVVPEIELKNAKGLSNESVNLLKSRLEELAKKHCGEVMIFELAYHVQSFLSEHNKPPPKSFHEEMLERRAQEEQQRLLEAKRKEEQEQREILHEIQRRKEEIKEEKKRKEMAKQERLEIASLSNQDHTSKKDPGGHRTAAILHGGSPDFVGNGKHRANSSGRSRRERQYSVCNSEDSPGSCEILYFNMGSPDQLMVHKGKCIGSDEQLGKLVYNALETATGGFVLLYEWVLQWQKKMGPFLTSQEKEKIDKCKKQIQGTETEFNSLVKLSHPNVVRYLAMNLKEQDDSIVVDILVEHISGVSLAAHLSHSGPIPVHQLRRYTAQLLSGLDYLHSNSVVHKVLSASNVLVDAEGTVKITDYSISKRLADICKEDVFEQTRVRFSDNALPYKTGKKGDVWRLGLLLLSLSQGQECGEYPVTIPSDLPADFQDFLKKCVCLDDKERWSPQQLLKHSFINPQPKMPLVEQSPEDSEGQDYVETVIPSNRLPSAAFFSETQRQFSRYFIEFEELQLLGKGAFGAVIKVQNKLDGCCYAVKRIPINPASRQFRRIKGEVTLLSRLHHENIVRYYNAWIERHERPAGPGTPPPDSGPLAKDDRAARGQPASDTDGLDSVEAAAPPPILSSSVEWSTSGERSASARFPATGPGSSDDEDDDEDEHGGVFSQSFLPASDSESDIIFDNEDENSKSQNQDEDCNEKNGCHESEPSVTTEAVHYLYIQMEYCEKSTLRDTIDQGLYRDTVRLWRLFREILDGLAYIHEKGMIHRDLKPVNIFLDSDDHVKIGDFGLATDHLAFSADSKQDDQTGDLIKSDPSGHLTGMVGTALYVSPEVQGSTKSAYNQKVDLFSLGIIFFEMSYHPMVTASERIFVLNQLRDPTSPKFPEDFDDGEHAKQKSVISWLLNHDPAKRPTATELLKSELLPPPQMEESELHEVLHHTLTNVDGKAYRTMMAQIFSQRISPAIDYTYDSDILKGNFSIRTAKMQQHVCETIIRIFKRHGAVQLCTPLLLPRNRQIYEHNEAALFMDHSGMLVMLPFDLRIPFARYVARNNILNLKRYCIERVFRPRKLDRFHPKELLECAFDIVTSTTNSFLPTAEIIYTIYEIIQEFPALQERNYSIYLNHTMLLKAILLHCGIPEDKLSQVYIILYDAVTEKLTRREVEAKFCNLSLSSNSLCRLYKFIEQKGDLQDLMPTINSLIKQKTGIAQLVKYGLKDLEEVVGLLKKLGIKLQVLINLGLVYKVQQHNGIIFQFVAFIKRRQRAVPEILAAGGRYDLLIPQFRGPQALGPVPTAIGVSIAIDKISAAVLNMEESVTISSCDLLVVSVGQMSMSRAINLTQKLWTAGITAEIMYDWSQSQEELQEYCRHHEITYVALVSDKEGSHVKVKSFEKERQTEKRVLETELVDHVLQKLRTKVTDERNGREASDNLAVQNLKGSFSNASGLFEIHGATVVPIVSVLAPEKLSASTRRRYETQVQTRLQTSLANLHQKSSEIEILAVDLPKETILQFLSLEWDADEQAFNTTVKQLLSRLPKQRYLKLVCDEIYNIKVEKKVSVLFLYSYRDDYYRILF
Chain of intracellular GCN2 (phosphorylation of the GCN2 substrate eIF2α) (Q9P2K8 whole entry): as above

In the case of `CC1CN(c2cc(-c3cnc4ccc(C(F)F)nn34)ccn2)CC(CNS(C)(=O)=O)O1` (centres unmarked) [II-119, N-((4-(4-(6-(Difluoromethyl)imidazo[1,2-b]pyridazin-3-yl)pyridin-2-yl)-6-methylmorpholin-2-yl)methyl)methanesulfonamide], in assay [1], the inhibition constant Ki is under 10 nM. In assay [2], this compound came in with a half-maximal inhibitory concentration (IC50) of under 500 nM.
In assay [1], `COc1cc(-c2cnc3ccc(C(F)F)nn23)cc(N2CCC[C@H](CNS(C)(=O)=O)C2)n1` [II-120, (S)—N-((1-(4-(6-(Difluoromethyl)imidazo[1,2-b]pyridazin-3-yl)-6-methoxypyridin-2-yl)piperidin-3-yl)methyl)methanesulfonamide] displayed an inhibitory constant (Ki) of under 10 nM. Moreover, the half-maximal inhibitory concentration (IC50) in assay [2] is over 5000 nM.
`CS(=O)(=O)NC[C@@H]1CN(c2cc(-c3cnc4ccc(C(F)F)nn34)ccn2)CCO1` [II-121, N-[[(2S)-4-[4-[6-(Difluoromethyl)imidazo[1,2-b]pyridazin-3-yl]-2-pyridyl]morpholin-2-yl]methyl]methanesulfonamide] gave a Ki in assay [1] of under 10 nM. In assay [2], this compound came in with an IC50 of under 500 nM.
On the same counts, the results for `CS(=O)(=O)NCC1CCCN(c2cc(-c3cnc4ccc(C(F)F)nn34)cc(F)n2)C1` (centres unmarked) [II-122, N-((1-(4-(6-(Difluoromethyl)imidazo[1,2-b]pyridazin-3-yl)-6-fluoropyridin-2-yl)piperidin-3-yl)methyl)methanesulfonamide] are under 10 nM and 500 to 5000 nM.
On the same counts, the results for `CS(=O)(=O)NCC1CCN(c2cc(-c3cnc4ccc(C(F)F)nn34)ccn2)C1` (centres unmarked) [II-123, N-((1-(4-(6-(Difluoromethyl)imidazo[1,2-b]pyridazin-3-yl)pyridin-2-yl)pyrrolidin-3-yl)methyl)methanesulfonamide] are 10 to 1000 nM and 500 to 5000 nM.
The corresponding values for `CS(=O)(=O)NOC1CCCN(c2cc(-c3cnc4ccc(C(F)F)nn34)ccn2)C1` (centres unmarked) [II-124, N-((1-(4-(6-(Difluoromethyl)imidazo[1,2-b]pyridazin-3-yl)pyridin-2-yl)piperidin-3-yl)oxy)methanesulfonamide] are under 10 nM and 500 to 5000 nM.
Regarding `CS(=O)(=O)NCC1CCCN(c2ccnc(-c3cnc4ccc(C(F)F)nn34)c2)C1` (centres unmarked) [II-125, N-((1-(2-(6-(Difluoromethyl)imidazo[1,2-b]pyridazin-3-yl)pyridin-4-yl)piperidin-3-yl)methyl)methanesulfonamide], the inhibition constant Ki in assay [1] was under 10 nM. This compound also returned a 50% inhibitory concentration (IC50) in assay [2] of under 500 nM.
In assay [1], `CS(=O)(=O)N1CC2(CN(c3cc(-c4cnc5ccc(C(F)F)nn45)ccn3)CCO2)C1` [II-126, 8-(4-(6-(Difluoromethyl)imidazo[1,2-b]pyridazin-3-yl)pyridin-2-yl)-2-(methylsulfonyl)-5-oxa-2,8-diazaspiro[3.5]nonane] yielded a Ki of 10 to 1000 nM. The compound further showed a concentration for half-maximal inhibition (IC50) in assay [2] of over 5000 nM.
The corresponding values for `CC(=O)N1CCN(c2ccnc(-c3cnc4ccc(C(F)F)nn34)c2)CC1` [II-127, 1-(4-(2-(6-(Difluoromethyl)imidazo[1,2-b]pyridazin-3-yl)pyridin-4-yl)piperazin-1-yl)ethanone] are 10 to 1000 nM and 500 to 5000 nM.
On the same counts, the results for `CS(=O)(=O)CCC1CCCN(c2cc(-c3cnc4ccc(C(F)F)nn34)ccn2)C1` (centres unmarked) [II-128, 6-(Difluoromethyl)-3-(2-(3-(2-(methylsulfonyl)ethyl)piperidin-1-yl)pyridin-4-yl)imidazo[1,2-b]pyridazine] are 10 to 1000 nM and 500 to 5000 nM.
In assay [1], `Cc1cc(-c2cnc3ccc(C(F)F)nn23)cc(N2CCCC(CNS(C)(=O)=O)C2)n1` (centres unmarked) [II-129, N-((1-(4-(6-(Difluoromethyl)imidazo[1,2-b]pyridazin-3-yl)-6-methylpyridin-2-yl)piperidin-3-yl)methyl)methanesulfonamide] returned an inhibition constant (Ki) of under 10 nM. This compound also came in with an IC50 in assay [2] of 500 to 5000 nM.
The corresponding values for `CS(=O)(=O)NCC1CCCN(c2cc(-c3cnc4ccc(C(F)F)nn34)cc(C#N)n2)C1` (centres unmarked) [II-130, N-((1-(6-Cyano-4-(6-(difluoromethyl)imidazo[1,2-b]pyridazin-3-yl)pyridin-2-yl)piperidin-3-yl)methyl)methanesulfonamide] are 10 to 1000 nM and over 5000 nM.
Consider `CS(=O)(=O)N(O)CC1CN(c2cc(-c3cnc4ccc(C(F)F)nn34)ccn2)CCC1(F)F` (centres unmarked) [II-131, N-((1-(4-(6-(Difluoromethyl)imidazo[1,2-b]pyridazin-3-yl)pyridin-2-yl)-4,4-difluoropiperidin-3-yl)methyl)-N-hydroxymethanesulfonamide], for which the inhibition constant Ki in assay [1] is under 10 nM. Besides, the IC50 in assay [2] is under 500 nM.
The corresponding values for `CC(NS(C)(=O)=O)C1CCCN(c2cc(-c3cnc4ccc(C(F)F)nn34)ccn2)C1` (centres unmarked) [II-133, N-(1-(1-(4-(6-(Difluoromethyl)imidazo[1,2-b]pyridazin-3-yl)pyridin-2-yl)piperidin-3-yl)ethyl)methanesulfonamide] are under 10 nM and 500 to 5000 nM.
The corresponding values for `CC(NS(C)(=O)=O)C1CCCN(c2cc(-c3cnc4ccc(C(F)F)nn34)ccn2)C1` (centres unmarked) [II-134, N-(1-(1-(4-(6-(Difluoromethyl)imidazo[1,2-b]pyridazin-3-yl)pyridin-2-yl)piperidin-3-yl)ethyl)methanesulfonamide] are 10 to 1000 nM and 500 to 5000 nM.
The corresponding values for `NC(=O)C1CN(c2cc(-c3cnc4ccc(C(F)F)nn34)ccn2)CCO1` (centres unmarked) [II-135, 4-(4-(6-(Difluoromethyl)imidazo[1,2-b]pyridazin-3-yl)pyridin-2-yl)morpholine-2-carboxamide] are 10 to 1000 nM and 500 to 5000 nM.
Compound `CS(=O)(=O)N1CC2(CCCN(c3cc(-c4cnc5ccc(C(F)F)nn45)ccn3)C2)C1` [II-136, 6-(Difluoromethyl)-3-(2-(2-(methylsulfonyl)-2,6-diazaspiro[3.5]nonan-6-yl)pyridin-4-yl)imidazo[1,2-b]pyridazine] had a Ki in assay [1] of under 10 nM. This compound also had a half-inhibitory concentration (IC50) in assay [2] of under 500 nM.
In assay [1], `CS(=O)(=O)NCC1(O)CCN(c2cc(-c3cnc4ccc(C(F)F)nn34)ncn2)C1` (centres unmarked) [II-137, N-((1-(6-(6-(Difluoromethyl)imidazo[1,2-b]pyridazin-3-yl)pyrimidin-4-yl)-3-hydroxypyrrolidin-3-yl)methyl)methanesulfonamide] showed an inhibition constant Ki of 10 to 1000 nM. This compound also had a concentration for half-maximal inhibition (IC50) in assay [2] of over 5000 nM.
The corresponding values for `CS(=N)(=O)CC1CCCN(c2cc(-c3cnc4ccc(C(F)F)nn34)ccn2)C1` (centres unmarked) [II-138, ((1-(4-(6-(Difluoromethyl)imidazo[1,2-b]pyridazin-3-yl)pyridin-2-yl)piperidin-3-yl)methyl)(imino)(methyl)-λ^6-sulfanone] are 10 to 1000 nM and 500 to 5000 nM.
In assay [1], `CS(=O)(=O)NCC1(F)CCCN(c2cc(-c3cnc4ccc(C(F)F)nn34)ccn2)C1` (centres unmarked) [II-139, N-((1-(4-(6-(Difluoromethyl)imidazo[1,2-b]pyridazin-3-yl)pyridin-2-yl)-3-fluoropiperidin-3-yl)methyl)methanesulfonamide] showed a Ki of 10 to 1000 nM. The IC50 in assay [2] was 500 to 5000 nM.
On the same counts, the results for `CS(=O)(=O)NCC1CN(c2cc(-c3cnc4ccc(C(F)F)nn34)ncn2)CC1O` (centres unmarked) [II-140, N-((1-(6-(6-(Difluoromethyl)imidazo[1,2-b]pyridazin-3-yl)pyrimidin-4-yl)-4-hydroxypyrrolidin-3-yl)methyl)methanesulfonamide] are 10 to 1000 nM and over 5000 nM.
Compound `CS(=O)(=O)NCC1CCCN(c2cc(-c3cnc4ccc(C(F)F)nn34)cc(O)n2)C1` (centres unmarked) [II-141, N-((1-(4-(6-(difluoromethyl)imidazo[1,2-b]pyridazin-3-yl)-6-oxo-1,6-dihydropyridin-2-yl)piperidin-3-yl)methyl)methanesulfonamide] displayed a Ki in assay [1] of under 10 nM. The same compound showed an IC50 in assay [2] of 500 to 5000 nM.
The corresponding values for `COc1cc(-c2cnc3ccc(C(F)F)nn23)cc(N2CCCC(CNS(C)(=O)=O)C2)n1` (centres unmarked) [II-142, N-((1-(4-(6-(Difluoromethyl)imidazo[1,2-b]pyridazin-3-yl)-6-methoxypyridin-2-yl)piperidin-3-yl)methyl)methanesulfonamide] are under 10 nM and 500 to 5000 nM.
The corresponding values for `NC(=O)[C@H]1CCCN(c2cc(-c3cnc4ccc(C(F)F)nn34)ccn2)C1` [II-143, (S′)-1-(4-(6-(Difluoromethyl)imidazo[1,2-b]pyridazin-3-yl)pyridin-2-yl)piperidine-3-carboxamide] are under 10 nM and under 500 nM.
On the same counts, the results for `NS(=O)(=O)CC1CCCN(c2cc(-c3cnc4ccc(C(F)F)nn34)ccn2)C1` (centres unmarked) [II-144, (1-(4-(6-(Difluoromethyl)imidazo[1,2-b]pyridazin-3-yl)pyridin-2-yl)piperidin-3-yl)methanesulfonamide] are 10 to 1000 nM and 500 to 5000 nM.
In assay [1], `NC(=O)CC1CCCN(c2cc(-c3cnc4ccc(C(F)F)nn34)ccn2)C1` (centres unmarked) [II-145, 2-(1-(4-(6-(Difluoromethyl)imidazo[1,2-b]pyridazin-3-yl)pyridin-2-yl)piperidin-3-yl)acetamide] had a Ki of 10 to 1000 nM. This compound also displayed an IC50 in assay [2] of 500 to 5000 nM.
As for `OCCC1CN(c2cc(-c3cnc4ccc(C(F)F)nn34)ccn2)CCO1` (centres unmarked) [II-146, 2-(4-(4-(6-(Difluoromethyl)imidazo[1,2-b]pyridazin-3-yl)pyridin-2-yl)morpholin-2-yl)ethanol], the Ki in assay [1] fell in the range of 10 to 1000 nM. Further, the IC50 in assay [2] lay within 500 to 5000 nM.
In the case of `FC(F)c1ccc2ncc(-c3ccnc(N4CCOC(c5cn[nH]c5)C4)c3)n2n1` (centres unmarked) [II-147, 4-(4-(6-(Difluoromethyl)imidazo[1,2-b]pyridazin-3-yl)pyridin-2-yl)-2-(1H-pyrazol-4-yl)morpholine], the Ki in assay [1] lay within 10 to 1000 nM. Further, the IC50 in assay [2] was under 500 nM.
